Here are results for 68 compounds from patent US9809602B2, “Compounds for treating viral infections” (INSTITUT PASTEUR KOREA, priority 2014, dated 2017).

Where only a bound is given, the exact number is not on record here.

One assay concerns genotype 1/2 chimeric cell culture derived HCV (HCVcc). In words: Genotype 1/2 chimeric HCVcc assay (nano-luciferase, HCV replication). Type of assay: cell-based. As to conditions: Hepatitis C virus. Put shortly: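 Huh-7.5 cells (2400/well) pretreated 2 h with serially diluted compound, then infected with nano-luciferase genotype 1a/2a (JFH-1) chimeric HCVcc. At 72 h post infection, nano-luciferase reported replication and cellular ATP reported cytotoxicity; EC50 and CC50 by non-linear regression.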
For orientation: EC50 means the concentration needed to bring the measured effect to its halfway point. Lower therefore signals an effect from little substance. Regarding `O=C(NCCCN1CCC(N2CCCCC2)CC1)c1ccc(OCc2ccc(F)cc2)cc1` [Compound 1043], the EC50 lay in the range of 1000 to 10000 nM.
Regarding `O=C(NCCCN1CCC(N2CCCCC2)CC1)c1ccc(-c2ccc(F)cc2F)cc1` [Compound 1134], the EC50 was 100 to 1000 nM.
Still for that read-out and setting: in the case of `N#Cc1ccc(Oc2ccc(C(=O)NCCCN3CCC(N4CCCCC4)CC3)cc2)cc1` [Compound 1035] it was more than 10000 nM; in that of `O=C(CCCN1CCC(N2CCCCC2)CC1)Nc1ccc(-c2ccc(C(F)(F)F)cc2)c(C(F)(F)F)c1` [Compound 1158], 100 to 1000 nM; in that of `O=S(=O)(NCCCN1CCC(N2CCCCC2)CC1)c1ccc(-c2ccc(C(F)(F)F)cc2)cc1` [Compound 1093], 100 to 1000 nM.
Compound `O=C(NCCCN1CCC(N2CCCCC2)CC1)c1cccc(Oc2ccccc2)c1` [Compound 1031] came in with an EC50 of 1000 to 10000 nM.
The compound `O=C(NCCCN1CCC(N2CCCCC2)CC1)c1ccc(-c2ccc(CO)cc2)cc1` [Compound 1148] yielded an EC50 of more than 10000 nM.
As to `O=C(NCCCN1CCC(N2CCCCC2)CC1)c1ccc(-c2ccc(Cl)cc2C(F)(F)F)cc1` [Compound 1136], the EC50 is 100 to 1000 nM.
Still for that read-out and setting: in the case of `O=C(NCCCN1CCC(N2CCCCC2)CC1)c1ccc(-c2cccc(CN3CCOCC3)c2)cc1` [Compound 1143] it was 1000 to 10000 nM; in that of `O=C(NCCCN1CCC(N2CCCCC2)CC1)c1ccccc1-c1ccccc1` [Compound 1011], more than 10000 nM; in that of `O=S(=O)(NCCCN1CCC(N2CCCCC2)CC1)c1ccc(-c2ccc(F)cc2)cc1` [Compound 1096], 100 to 1000 nM.
`O=C(CCCN1CCC(N2CCCCC2)CC1)Nc1ccc(-c2ccc(C(F)(F)F)cc2)cc1` [Compound 1086] returned a half-maximal effective concentration (EC50) of 100 to 1000 nM.
`O=C(NCCCN1CCC(NC2CCCCC2)CC1)c1ccc(Oc2ccccc2)cc1` [Compound 1079] came in with an EC50 of 100 to 1000 nM.
On the same count and under the same terms, with `O=S(=O)(NCCCCN1CCC(N2CCCCC2)CC1)c1ccc(-c2ccccc2)cc1` [Compound 1091] the figure was 100 to 1000 nM.
On the same count and under the same terms, in the case of `O=C(NCCCN1CCC(N2CCCCC2)CC1)c1cc2ccccc2s1` [Compound 1009] it was 1000 to 10000 nM; in that of `O=C(NCCCN1CCC(N2CCCCC2)CC1)C1=Cc2sc3c(c2CS1)CCCC3` [Compound 1001], 100 to 1000 nM.
As for `O=C(NCCCN1CCC(N2CCCCC2)CC1)c1ccc(-c2ccc(C(F)(F)F)cc2)o1` [Compound 1083], the EC50 is 100 to 1000 nM.
Compound `O=S(=O)(NCCCCN1CCC(N2CCCCC2)CC1)c1ccc(-c2ccc(C(F)(F)F)cc2)cc1` [Compound 1095] had an EC50 of 100 to 1000 nM.
Still for that read-out and setting: with `O=C(NCCCN1CCC(Nc2ccccc2)CC1)c1ccc(Oc2ccccc2)cc1` [Compound 1058] the figure was 1000 to 10000 nM.
As for `COc1ccccc1-c1ccc(C(=O)NCCCN2CCC(N3CCCCC3)CC2)cc1` [Compound 1017], the EC50 was 1000 to 10000 nM.
`O=C(NCCCN1CCC(N2CCCCC2)CC1)c1ccc(-c2ccc(C(F)(F)F)cc2)cc1` [Compound 1019]: the EC50 lay within 100 to 1000 nM.
The same measure, in the same setting: in the case of `COc1ccc(Oc2ccc(C(=O)NCCCN3CCC(N4CCCCC4)CC3)cc2)cc1` [Compound 1032] it was 100 to 1000 nM.
Same read-out and setting: with `CN1CCN(C(=O)c2ccc(-c3ccc(C(=O)NCCCN4CCC(N5CCCCC5)CC4)cc3)cc2)CC1` [Compound 1151] the figure was more than 10000 nM.
On the same count and under the same terms, with `O=C(NCCCN1CCN(C(=O)C2CCCCC2)CC1)c1ccc(Oc2ccccc2)cc1` [Compound 1038] the figure was more than 10000 nM.
Regarding `COc1cc(NC(=O)CCCN2CCC(N3CCCCC3)CC2)ccc1-c1ccc(C(F)(F)F)cc1` [Compound 1157], the EC50 is 100 to 1000 nM.
The same measure, in the same setting: in the case of `COc1ccc(-c2ccc(C(=O)NCCCN3CCC(N4CCCCC4)CC3)cc2)c(F)c1` [Compound 1131] it was 100 to 1000 nM; in that of `O=C(NCCN1CCC(N2CCCCC2)CC1)c1ccc(Oc2ccccc2)cc1` [Compound 1044], 1000 to 10000 nM.
The same measure, in the same setting: with `O=C(NCCCN1CCC(N2CCCCC2)CC1)c1ccc(Cc2ccccc2)cc1` [Compound 1012] the figure was 100 to 1000 nM.

Still in this assay, the particulars now being: Hepatitis C virus, Huh7.5, 72 h.
Consider `CN(C)CCN1CCc2c(sc(-c3cccc(F)c3)c2CNC(=O)Nc2sc3c(c2C(=O)OC(C)(C)C)CCCC3)C1` [Compound 359], for which the EC50 is less than 100 nM.
Still for that read-out and setting: in the case of `CCOC(=O)c1c(NC(=O)NC(C)c2c(-n3cccc3)sc3c2CCN(CC)C3)sc2c1CCCC2` (centres unmarked) [Compound 1] it was 100 to 1000 nM.
Same read-out and setting: in the case of `CCOC(=O)c1c(NC(=O)NCc2c(-n3cccc3)sc3c2CCN(CC)C3)sc(C)c1-c1ccc(F)cc1` [Compound 42] it was less than 100 nM.
In turn, `CCOC(=O)c1c(NC(=O)NCc2c(-n3cccc3)sc3c2CCN(CC)C3)sc2c1CCNC2` [Compound 46] gave an EC50 of 100 to 1000 nM.
Compound `CCOC(=O)c1c(NC(=O)NCc2c(-n3cccc3)sc3c2CCN(CC(C)C)C3)sc2c1CCCC2` [Compound 27] displayed an EC50 of less than 100 nM.
`CN1CCc2c(sc(C(F)(F)F)c2CNC(=O)Nc2sc3c(c2C(=O)OC(C)(C)C)CCCCC3)C1` [Compound 281] came in with an EC50 of less than 100 nM.
On the same count and under the same terms, with `CN(C)CCN1CCc2c(sc(-c3cccc(Cl)c3)c2CNC(=O)Nc2sc3c(c2C(=O)OC(C)(C)C)CCCC3)C1` [Compound 358] the figure was less than 100 nM; with `Cc1c(CNC(=O)Nc2sc3c(c2C(=O)OC(C)(C)C)CCCC3)csc1CN(C)C` [Compound 189], less than 100 nM.
Same read-out and setting: in the case of `O=C(NCc1c(C(F)(F)F)sc2c1CCNC2)Nc1sc2c(c1C(=O)OC1CCCC1)CCCC2` [Compound 235] it was less than 100 nM.
Same read-out and setting: with `Cc1sc(NC(=O)NCc2c(-n3cccc3)sc3c2CCN(C)C3)c(C(=O)OC(C)(C)C)c1C` [Compound 69] the figure was less than 100 nM; with `CCN1CCc2c(sc(-n3cccc3)c2C(C)(C)NC(=O)Nc2sc3c(c2C(=O)OC(C)(C)C)CCCC3)C1` [Compound 202], 1000 to 10000 nM.
`CC(C)(C)OC(=O)c1c(NC(=O)NCc2c(-c3ccccc3O)sc3c2CCNC3)sc2c1CCCC2` [Compound 249] showed an EC50 of 100 to 1000 nM.
Take `CCN1CCc2c(sc(-n3cccc3)c2CNC(=O)Nc2sc3c(c2C(=O)OC(C)(C)C)CC(C)CC3)C1` (centres unmarked) [Compound 232]: the EC50 is less than 100 nM.
Same read-out and setting: with `CCOC(=O)c1c(NC(=S)NCc2c(-n3cccc3)sc3c2CCN(CC)C3)sc2c1CCCC2` [Compound 44] the figure was less than 100 nM; with `CCOC(=O)c1c(NC(=O)NCc2c(-n3cccc3)sc3c2CCN(C)C3)sc2c1C(C)CCC2` (centres unmarked) [Compound 152], less than 100 nM.
The compound `CC(C)(C)OC(=O)c1c(NC(=O)NCc2csc3c2CCNC3)sc2c1CCCC2` [Compound 124] had an EC50 of less than 100 nM.
On the same count and under the same terms, with `CCOC(=O)c1c(NC(=O)C(=O)NCc2c(-n3cccc3)sc3c2CCN(C(=O)OC(C)(C)C)C3)sc2c1CCCC2` [Compound 85] the figure was more than 10000 nM; with `CCOC(=O)c1c(NC(=O)NCc2c(-n3cccc3)sc3c2CCN(CC)C3)sc2c1CCOC2` [Compound 41], less than 100 nM; with `Cc1ccccc1-c1sc2c(c1CNC(=O)Nc1sc3c(c1C(=O)OC(C)(C)C)CCCC3)CCNC2` [Compound 250], 100 to 1000 nM.
On the same count and under the same terms, with `CCOC(=O)c1c(NC(=O)NCc2c(-n3cccc3)sc3c2CCCN3C(=O)OC(C)(C)C)sc2c1CCCC2` [Compound 100] the figure was more than 10000 nM; with `Cc1sc(NC(=O)NCc2c(C(F)(F)F)sc3c2CCNC3)c(C(=O)OC(C)(C)C)c1C` [Compound 137], less than 100 nM; with `CCOC(=O)c1c(NC(=O)NCc2c(Br)sc3c2CCN(CC)C3)sc2c1CCCC2` [Compound 110], less than 100 nM.
On the same count and under the same terms, with `O=C(NCc1c(-c2ccoc2)sc2c1CCNC2)Nc1sc2c(c1C(=O)OC1CCCC1)CCCC2` [Compound 344] the figure was less than 100 nM.
As for `CN1CCc2c(sc(-n3cccc3)c2CNC(=O)Nc2sc3c(c2C(=O)OC2CCCC2)CCCC3)C1` [Compound 221], the EC50 is less than 100 nM.
Same read-out and setting: with `CC(C)OC(=O)c1c(NC(=O)NCc2c(C(F)(F)F)sc3c2CCN(C)C3)sc2c1CCCC2` [Compound 169] the figure was less than 100 nM.
`CC(C)(C)OC(=O)c1c(NC(=O)NCc2c(C(F)(F)F)sc3c2CCNC3)sc2c1CCCCC2` [Compound 245] registered an EC50 of less than 100 nM.
Compound `CC(C)(C)OC(=O)c1c(NC(=O)NCc2c(-c3ccc(F)cc3)sc3c2CCNC3)sc2c1CCCC2` [Compound 159] showed an EC50 of less than 100 nM.
The compound `COC(=O)c1c(NC(=O)NCc2c(C(F)(F)F)sc3c2CCNC3)sc2c1CCCC2` [Compound 129] gave an EC50 of less than 100 nM.
Same read-out and setting: in the case of `CCN1CCc2c(sc(C(F)(F)F)c2CNC(=O)Nc2sc3c(c2C(=O)OC(C)C)CCCC3)C1` [Compound 171] it was less than 100 nM; in that of `CCN1CCc2c(sc(C(F)(F)F)c2CNC(=O)Nc2sc(C)c(C)c2C(=O)OC(C)C)C1` [Compound 296], less than 100 nM.
`O=C(NCc1c(C(F)(F)F)sc2c1CCNC2)Nc1sc2c(c1C(=O)OC1CCOC1)CCOC2` (centres unmarked) [Compound 336] displayed an EC50 of less than 100 nM.
Regarding `CCNC(=O)c1c(NC(=O)NCc2c(-n3cccc3)sc3c2CCNC3)sc2c1CCCC2` [Compound 59], the EC50 was less than 100 nM.
The same measure, in the same setting: in the case of `CCN1CCc2c(sc(-n3cccc3)c2CNC(=O)Nc2cccc(Cl)c2)C1` [Compound 9] it was more than 10000 nM; in that of `CCOC(=O)c1c(NC(=O)NCc2c(C(F)(F)F)sc3c2CCN(C(=O)CN)C3)sc2c1CCCC2` [Compound 305], less than 100 nM; in that of `CCOC(=O)c1c(NC(=O)NCc2c(C(F)(F)F)sc3c2CCNC3)sc2ccccc12` [Compound 348], less than 100 nM.
`CCN1CCc2c(sc(-n3cccc3)c2CNC(=O)Nc2sc3c(c2C(=O)NCCCCNC(=O)CCCCCNC(=O)OC(C)(C)C)CCCC3)C1` [Compound 92] displayed an EC50 of 1000 to 10000 nM.
`O=C(NCc1c(-n2cccc2)sc2c1CCNC2)Nc1sc2c(c1C(=O)NCC1CCCCC1)CCCC2` [Compound 83] came in with an EC50 of 1000 to 10000 nM.
Same read-out and setting: in the case of `Cc1cncc(-c2sc3c(c2CNC(=O)Nc2sc4c(c2C(=O)OC(C)(C)C)CCCC4)CCNC3)c1` [Compound 322] it was 100 to 1000 nM; in that of `CCN1CCc2c(sc(-n3cccc3)c2CNC(=O)Nc2sc3c(c2C(=O)OC2CCCC2)CCCC3)C1` [Compound 222], less than 100 nM.
For the compound `CCOC(=O)c1c(NC(=O)NCc2c(Br)sc3c2CCNC3)sc2c1CCOC2` [Compound 163], the EC50 is less than 100 nM.
